The values below come from publication PMC7913524, “Novel Biphenyl Amines Inhibit Oestrogen Receptor (ER)-α in ER-Positive Mammary Carcinoma Cells” (Molecules, 2021).

Like-named read-outs stand apart in the source and are kept apart here. Where only a bound is given, the exact number is not on record here.

One series has as its target T1, ERα (Homo sapiens, UniProt P03372).
T1 construct: purchased Life Technologies
T1 sequence (P03372 1-595): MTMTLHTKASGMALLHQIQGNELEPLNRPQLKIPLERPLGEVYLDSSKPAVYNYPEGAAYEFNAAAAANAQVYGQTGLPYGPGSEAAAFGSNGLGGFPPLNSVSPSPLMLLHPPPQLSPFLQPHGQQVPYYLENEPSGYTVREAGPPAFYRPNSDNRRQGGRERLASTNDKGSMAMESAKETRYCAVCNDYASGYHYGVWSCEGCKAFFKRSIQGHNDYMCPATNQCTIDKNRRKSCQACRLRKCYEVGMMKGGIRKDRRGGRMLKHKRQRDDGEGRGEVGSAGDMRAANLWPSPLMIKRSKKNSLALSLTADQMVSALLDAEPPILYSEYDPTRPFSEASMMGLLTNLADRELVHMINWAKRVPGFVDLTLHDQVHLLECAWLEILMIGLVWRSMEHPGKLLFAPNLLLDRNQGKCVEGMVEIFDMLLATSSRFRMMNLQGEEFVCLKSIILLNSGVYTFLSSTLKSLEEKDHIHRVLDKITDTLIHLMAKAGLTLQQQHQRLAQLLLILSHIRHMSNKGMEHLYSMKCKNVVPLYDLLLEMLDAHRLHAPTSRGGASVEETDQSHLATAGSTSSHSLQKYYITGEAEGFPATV
Kind of series: ER-alpha competitive binding assay (PolarScreen ER Alpha Competitor, fluorescence polarization). Conditions: read-out: CBA IC50 + SD (competitive binding affinity). From the text: First, to rank the novel biphenyl derivatives based on binding affinity to ERα, a commercially available fluorescence polarization assay kit (PolarScreen™ ER Alpha Competitor assay) was utilized. […] The smaller size of the free molecule can be discerned by increased mobility in the solution, which is detected by fluorescence polarization (FP). A shift in the FP value in the presence of the test compounds is used to determine the relative affinity of test compounds for ERα.
The assay was performed as per the manufacturer’s instructions. The Fluorescence polarization value (mP) of each well on a fluorescence polarization plate was measured using fluorescence polarization Tecan infinite M1000PRO multimode microplate reader (Tecan, Switzerland). Data were modelled using GraphPad Prism® software from GraphPad Software, Inc..
Background: Polarisation of emitted light reports the rotation of a fluorescent probe.

In another series the test system is MCF7 cells. Nature of the series: AlamarBlue cell viability assay, MCF7. In kind it is cell-based, human. Conditions: read-out: Cell Viability (MCF7 Cells) IC50 ± SD. On the procedure:
(§1) Next, we determined the potential functional effects of novel ATBA compounds on the viability of MCF7 cells using an AlamarBlue® cell viability assay. […] We also determined the functional efficacy of the 4c compound in additional ER+ MC cell lines using an AlamarBlue® cell viability assay.
The human Michigan Cancer Foundation-7 (MCF7) cell line was obtained from the American Type Culture Collection (ATCC, Rockville, Gaithersburg, MD, USA) and was cultured as per ATCC propagation instructions.
(§2) AlamarBlue®, 3D Matrigel, and luciferase assay: AlamarBlue® cell viability kits were obtained from ThemoFisher Scientific (Waltham, Massachusetts, USA), and the assay was performed as previously described. 3D Matrigel assays were performed as previously described. Luciferase assays were performed as previously described. Briefly, transfections were carried out in triplicate using 1 μg of the appropriate luciferase reporter construct or empty vector along with 0.1 μg of Renilla luciferase construct as a control for transfection efficiency. Luciferase activities were measured using the Dual-Luciferase Assay System (Promega Corp, Madison, WI, USA).

A further series concerns T47D cells. Kind of series: AlamarBlue cell viability assay, T47D. Conditions: Homo sapiens. In kind it is cell-based. On the procedure: as §1, §2
A further series deals with BT474 cells. Nature of the series: AlamarBlue cell viability assay, BT474. In kind it is cell-based. Conditions: Homo sapiens, BT-474. On the procedure: as §1, §2
The subject of another series is MDA-MB-361 cells. Nature of the series: AlamarBlue cell viability assay, MDA-MB-361. The class given is cell-based. Conditions: Homo sapiens. On the procedure:
as §1, §2
(In general: Resazurin is reduced to fluorescent resorufin, in cell work by metabolically active cells.)

Series [1] concerns MCF7 cell-generated spheroids. Nature of the series: 3D Matrigel spheroid cell viability. In kind it is cell-based, human. Conditions: preformed MCF7 spheroids in 3D Matrigel, 5 µM, 72 h. On the procedure:
Furthermore, we examined the effect of the novel biphenyl derivatives on preformed spheroids generated using MC cells in 3D Matrigel (Figure 2).
as §2
Figure 2 Cell viability of MCF7 cell-generated spheroids after culture in 3D Matrigel for 10 days. Preformed MCF7 cell-generated spheroids were treated with compounds for 72 h before assessing cell viability. A concentration of 5 µM was used for the treatment. The cell viability of the MCF7 cell-generated spheroids was evaluated using an AlamarBlue® viability assay as described in the Materials and Methods section. Bars are the mean of triplicate experiments; bars, ±SD. ** P < 0.001, * P < 0.05.

Series [2] deals with oestrogen response element (ERE) transcriptional activity (ERα). Nature of the series: ERE-luc luciferase reporter assay in MCF7 cells. The class given is cell-based, human. Conditions: for antagonist activity against ERα (luciferase activity): MCF7 cells, with E2 10^-8 M, compounds 10^-10 to 10^-4 M. How it is done:
as §2, with “Next, to evaluate the activity of the synthesized compounds as agonists or antagonists to ERα, a reporter assay was performed with ERE-luc. […] AlamarBlue®,” for “AlamarBlue®,”, “USA). […] (lower panel). MCF7 cells were co-transfected with ERE-luc (firefly luciferase) and Renilla luciferase constructs as described in the Materials and Methods section. […] Results are shown as mean (+SD for triplicate transfection).” for “USA).”
(In general: Reporter assays use an easily measured gene product as a stand-in for the process of interest.)

The test system of another series is CCND1 protein expression. Kind of series: Western blot of CCND1 in MCF7 cells. In kind it is cell-based, human. On the procedure:
Increased expression of CCND1 is associated with approximately 50% of breast cancer cases and directly regulated by ER signalling. To determine functional effects downstream of ERα, we examined the effect of ATBA compounds on hCCND1 protein expression in MC cells. […] Western blot analysis: Western blot analysis was performed as previously described, using a primary monoclonal antibody against CCND1 and β-ACTIN obtained from Cell Signalling, Danvers, Massachusetts, USA. Quantification of blot was performed by use of ImageJ software from NIH, USA (http://imagej.nih.gov/ij/) as described previously. […] Soluble whole-cell extracts were run on an SDS-PAGE and immunoblotted. β-ACTIN was used as input control for cell lysate (left side). The predicted sizes of detected protein bands in kDa are shown on the left side. The average of three independent densitometry analyses of CCND1 and β-ACTIN is shown above (right side) by use of Image J software from NIH, USA (http://imagej.nih.gov/ij/) as described previously.

Series [3] in a line: vNN-ADMET prediction: MRTD. Conditions: relative to TAM.

Usually IC50 stands for the concentration at which inhibition is half-maximal.

As to `COc1ccc(Nc2ccc(Cl)cc2)cc1C12CC3CC(CC(C3)C1)C2` [4a, 3-(Adamantan-1-yl)-N-(4-chlorophenyl)-4-methoxyaniline], the IC50 on ERα is 340 nM; in the series with MCF7 cells (Homo sapiens, MCF7, AlamarBlue) it was > 50 µM.

Regarding `COc1ccc(Nc2ccc(OC)c(C34CC5CC(CC(C5)C3)C4)c2)cc1` [4b, 3-(Adamantan-1-yl)-4-methoxy-N-(4-methoxyphenyl) aniline], the half-maximal inhibitory concentration (IC50) was 202 nM on ERα and > 50 µM in the series on MCF7 cells (Homo sapiens, MCF7, AlamarBlue).

As for `COc1ccc(Nc2ccc(C(F)(F)F)cc2)cc1C12CC3CC(CC(C3)C1)C2` [4c, 3-(Adamantan-1-yl)-4-methoxy-N-(4-(trifluoromethyl)phenyl) aniline], the IC50 was 62.8 nM on ERα; 6.29 ± 2.41 µM in the series with MCF7 cells (AlamarBlue); 6.4 µM with MCF7 cells (Homo sapiens, MCF7, AlamarBlue); 7.38 µM in the series on T47D cells; 6.36 µM in the series with BT474 cells; 8.31 µM with MDA-MB-361 cells. This molecule also registered an IC50 in [2] (Homo sapiens, MCF7) of 830 ± 60 nM. Further, in series [1], the “cell viability of spheroids compared to vehicle (DMSO)” value is “significantly decreased cell viability”. For the same molecule, the “inhibitory effect on spheroids compared to TAM-treated spheroids” value in [1] is reported as “significant inhibitory effect compared to TAM-treated MC cell-generated spheroids”; in [1] (listed as AMTA), “superior inhibitory effect compared to tamoxifen-treated MC cell spheroids”. The “antagonist activity against ERα (luciferase activity)” value (shortened to “antagonist activity against ERα”) in series [2] was “most potent antagonist activity against ERα in a dosage-dependent manner”; in series [2] (listed as AMTA), “significantly deceased ERE transcriptional activity”. Besides, the CCND1 protein levels entry in the series with CCND1 protein expression is recorded as “most potently decreased the protein levels of CCND1 in MC cells in the nanomolar range”; with CCND1 protein expression (listed as AMTA), “significantly decreased protein levels of oestrogen-regulated CCND1 in a dose-dependent manner”. The “predicted maximum recommended therapeutic dose compared to TAM” value in series [3] is on record as “approximately four times higher”.

As for `COc1ccc(Nc2cccc(O)c2)cc1C12CC3CC(CC(C3)C1)C2` [4d, 3-((3-(Adamantan-1-yl)-4-methoxyphenyl)amino) phenol], the IC50 at ERα stood at 82.6 nM; in the series with MCF7 cells (Homo sapiens, MCF7, AlamarBlue) it was 8.81 ± 1.85 µM. Further, the “cell viability of spheroids compared to vehicle (DMSO)” value in [1] is on record as “significantly decreased cell viability”. Moreover, the “antagonist activity against ERα” value in series [2] is “most potent antagonist activity against ERα in a dosage-dependent manner”.

Consider `COc1ccc(Nc2ccc(C)cc2)cc1C12CC3CC(CC(C3)C1)C2` [4f, 3-(Adamantan-1-yl)-4-methoxy-N-(p-tolyl) aniline], for which the IC50 on ERα turned out to be 98.5 nM; in the series on MCF7 cells (Homo sapiens, MCF7, AlamarBlue), 12.3 ± 3.77 µM. Moreover, the “cell viability of spheroids compared to vehicle (DMSO)” value in series [1] was “significantly decreased cell viability”. For the same molecule, the “antagonist activity against ERα” value in series [2] was “most potent antagonist activity against ERα in a dosage-dependent manner”.

As to `COc1ccc(Nc2cccnc2)cc1C12CC3CC(CC(C3)C1)C2` [4g], the IC50 was determined as 129 nM at ERα and 12.1 ± 3.07 µM in the series with MCF7 cells (Homo sapiens, MCF7, AlamarBlue). In addition, the “cell viability of spheroids compared to vehicle (DMSO)” value in series [1] is recorded as “significantly decreased cell viability”. Besides, the “antagonist activity against ERα” value in series [2] is “most potent antagonist activity against ERα in a dosage-dependent manner”.

For `COc1ccc(Nc2ccc(C)cn2)cc1C12CC3CC(CC(C3)C1)C2` [4h], the IC50 on ERα is 189 nM; in the series with MCF7 cells (AlamarBlue), 42.2 ± 9.31 µM; with MCF7 cells (Homo sapiens, MCF7, AlamarBlue), ~50 µM.

`COc1ccc(Nc2cccc3ccccc23)cc1C12CC3CC(CC(C3)C1)C2` [4i]: the IC50 at ERα was 264 nM; in the series on MCF7 cells (AlamarBlue), 47.6 ± 7.48 µM; in the series with MCF7 cells (Homo sapiens, MCF7, AlamarBlue), ~50 µM.
